Assay results taken from patent US8741836B2, “Polypeptides” (Novo Nordisk A/S, priority 2011, dated 2014).
Starred links: 1 amine or outer side, 2 acyl side, 3 side chain; linkers in the order of their positions; H or OH if unused. Positions of bridges follow the written chain, without caps; N, C: chain ends. Residues, ends and D or L forms follow the SMILES beside them. Groups on a side chain read outwards from the residue. *: point of attachment. C18 diacid = O=C(O)CCCCCCCCCCCCCCCCC(=O)*; γGlu = O=C(O)[C@H](CCC(=O)[*:2])N[*:1]; AEEA = NCCOCCOCC(=O)O

Assays:
[1] = Assay (III) ThT fibrillation assay for physical stability; assay type: physicochemical
Procedure, shortened: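 Freshly prepared, pH-adjusted formulations with 1 μM ThT incubated at 37 °C under 960 rpm orbital shaking (1 mm), fluorescence (ex 444, em 485 nm) read every 20 min. […] Peptide content before and after measured by reverse-phase HPLC against pramlintide standard.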

[2] = target: T1, rat amylin 3(a) receptor (rat calcitonin(a) receptor+rat RAMP3) (Rattus norvegicus, UniProt P32214+Q9JJ73); test: Assay (II)b functional assay, rat amylin receptor (cAMP FlashPlate); assay type: cell-based; conditions: Table 11
T1 construct: expressed in transfected cells; host or cells: BHK tk'ts 13 (transient, FuGENE 6)
T1 sequence (P32214 25-479 isoform P32214-2 limits assumed): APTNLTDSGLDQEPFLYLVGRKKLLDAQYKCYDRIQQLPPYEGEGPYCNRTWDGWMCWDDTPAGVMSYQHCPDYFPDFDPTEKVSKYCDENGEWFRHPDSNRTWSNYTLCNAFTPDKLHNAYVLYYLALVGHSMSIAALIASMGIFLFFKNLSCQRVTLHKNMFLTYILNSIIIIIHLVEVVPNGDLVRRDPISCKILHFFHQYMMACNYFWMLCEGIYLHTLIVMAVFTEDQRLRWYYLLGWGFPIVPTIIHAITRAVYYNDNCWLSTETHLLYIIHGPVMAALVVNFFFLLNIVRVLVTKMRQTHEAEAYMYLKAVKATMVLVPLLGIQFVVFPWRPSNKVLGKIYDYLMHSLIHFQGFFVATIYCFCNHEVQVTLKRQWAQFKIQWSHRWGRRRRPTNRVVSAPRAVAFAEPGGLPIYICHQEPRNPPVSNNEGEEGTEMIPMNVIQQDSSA
T1 sequence (Q9JJ73 24-147 partner limits assumed): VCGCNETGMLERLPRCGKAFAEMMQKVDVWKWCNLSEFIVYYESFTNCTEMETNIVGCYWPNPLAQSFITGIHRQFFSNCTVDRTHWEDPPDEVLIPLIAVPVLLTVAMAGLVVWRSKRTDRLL
Excerpt: Assay (II)b—Rat Calcitonin and Rat Amylin Receptor Assays
Activation of calcitonin and amylin (coexpression of calcitonin receptor and receptor activity modifying proteins (RAMP)) receptors lead to increased intracellular concentrations of cAMP. In order to quantify the cAMP levels in transiently transfected cells the Adenylyl Cyclase Activation FlashPlate® Assay from Perkin Elmer was used. The basic principle of the FlashPlate® Assay is a competition between radioactive and non-radioactive cAMP generated by the cells for a fixed number of binding sites.
Construction of Rat Calcitonin(a)- and Rat Amylin 3(a)-Receptor Cells.
BHK tk'ts 13 cells were transiently transfected with either rat calcitonin (a) receptor or amylin 3 (a) receptor (rat calcitonin(a) receptor+rat RAMP3) using FuGENE® 6 (Roche), according to the manufacturers recommendations.
24 hours after transient transfection the cells (rat calcitonin(a)- or rat amylin 3(a)-receptor cells) were added (100.000 cells/well) to the 96 well FlashPlates® with samples or standard in FlashPlate stimulation buffer with IBMX and incubated for 30 min. Detection mix was created according to manufacturers protocol and scintillation measured after 3 h of incubation on TopCounter™ (Packard).

CC[C@H](C)[C@H](NC(=O)[C@@H]1CCCN1C(=O)CNC(=O)[C@H](Cc1ccccc1)NC(=O)[C@H](CC(N)=O)NC(=O)[C@H](CCCCNC(=O)COCCOCCNC(=O)COCCOCCNC(=O)CC[C@H](NC(=O)CCCCCCCCCCCCCCCCC(=O)O)C(=O)O)NC(=O)[C@H](CO)NC(=O)[C@H](CO)NC(=O)[C@H](Cc1c[nH]cn1)NC(=O)[C@H](Cc1c[nH]cn1)NC(=O)[C@H](CC(C)C)NC(=O)[C@H](Cc1ccccc1)NC(=O)[C@H](CCC(=O)O)NC(=O)[C@H](C)NC(=O)[C@H](CC(C)C)NC(=O)[C@H](CCCNC(=N)N)NC(=O)[C@H](CCC(N)=O)NC(=O)[C@@H](NC(=O)[C@H](C)NC(=O)[C@@H]1CSSC[C@H](NC(=O)[C@@H](N)CCCCN)C(=O)N[C@@H](CC(N)=O)C(=O)N[C@@H]([C@@H](C)O)C(=O)N[C@@H](C)C(=O)N[C@@H]([C@@H](C)O)C(=O)N1)[C@@H](C)O)C(=O)N[C@@H](CC(C)C)C(=O)N1CCC[C@H]1C(=O)N1CCC[C@H]1C(=O)N[C@H](C(=O)N[C@@H](CC(N)=O)C(=O)N[C@H](C(=O)NCC(=O)N[C@@H](CO)C(=O)N[C@@H](CCC(=O)O)C(=O)N[C@H](C(=O)N[C@@H](Cc1ccc(O)cc1)C(N)=O)[C@@H](C)O)C(C)C)[C@@H](C)O [Example 74, N-epsilon21-[2-(2-{2-[2-(2-{2-[(S)-4-Carboxy-4-(17-carboxyheptadecanoylamino)butyrylamino]ethoxy}ethoxy)acetylamino]ethoxy}ethoxy)acetyl]-[Glu14,His17,Lys21,Glu35]-pramlintide] (H-KCNTATCATQRLAEFLHHSSK([AEEA-AEEA-γGlu-C18 diacid])NFGPILPPTNVGSETY-NH2; disulfide 2-7 (inferred); N-terminus and C-terminus assumed)
ThT pH 4.0 lag time (physical stability in fibrillogenesis assay) ([1]; pH 4.0): >45 h
ThT pH 4.0 lag time ([1]; pH 4.0, ThT fibrillation assay): >45 h
EC50 [2]: 0.504 nM
